SMILES strings stand for the structures.

As usually defined, the Ki is a measure of affinity in units of concentration, obtained from inhibition or displacement. Lower therefore signals tighter binding.

For assay [1], the target named is Norepinephrine transporter (Rattus norvegicus, UniProt Q9JIA2).
Assay [2] has as its target Sodium-dependent serotonin transporter (Rattus norvegicus, UniProt P31652).
In assay [3] the target is Sodium-dependent dopamine transporter (Rattus norvegicus, UniProt P23977).
Chain of Sodium-dependent dopamine transporter (P23977 whole entry): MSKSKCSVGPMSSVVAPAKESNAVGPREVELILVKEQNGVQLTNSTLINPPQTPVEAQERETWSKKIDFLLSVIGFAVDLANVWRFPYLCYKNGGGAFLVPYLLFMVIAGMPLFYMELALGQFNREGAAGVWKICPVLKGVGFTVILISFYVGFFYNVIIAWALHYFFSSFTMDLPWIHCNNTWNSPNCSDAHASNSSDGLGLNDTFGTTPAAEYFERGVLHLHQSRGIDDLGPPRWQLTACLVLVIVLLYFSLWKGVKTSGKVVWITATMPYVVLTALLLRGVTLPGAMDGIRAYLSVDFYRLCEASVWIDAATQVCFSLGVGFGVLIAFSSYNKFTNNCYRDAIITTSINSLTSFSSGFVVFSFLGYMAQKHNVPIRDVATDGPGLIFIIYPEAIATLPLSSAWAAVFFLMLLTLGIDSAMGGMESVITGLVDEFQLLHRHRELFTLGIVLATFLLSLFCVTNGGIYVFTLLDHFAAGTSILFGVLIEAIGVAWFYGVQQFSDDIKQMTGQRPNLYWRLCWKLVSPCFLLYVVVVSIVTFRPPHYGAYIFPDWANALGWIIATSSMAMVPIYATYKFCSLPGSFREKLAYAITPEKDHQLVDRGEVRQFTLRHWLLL

Chain of Sodium-dependent serotonin transporter (P31652 whole entry): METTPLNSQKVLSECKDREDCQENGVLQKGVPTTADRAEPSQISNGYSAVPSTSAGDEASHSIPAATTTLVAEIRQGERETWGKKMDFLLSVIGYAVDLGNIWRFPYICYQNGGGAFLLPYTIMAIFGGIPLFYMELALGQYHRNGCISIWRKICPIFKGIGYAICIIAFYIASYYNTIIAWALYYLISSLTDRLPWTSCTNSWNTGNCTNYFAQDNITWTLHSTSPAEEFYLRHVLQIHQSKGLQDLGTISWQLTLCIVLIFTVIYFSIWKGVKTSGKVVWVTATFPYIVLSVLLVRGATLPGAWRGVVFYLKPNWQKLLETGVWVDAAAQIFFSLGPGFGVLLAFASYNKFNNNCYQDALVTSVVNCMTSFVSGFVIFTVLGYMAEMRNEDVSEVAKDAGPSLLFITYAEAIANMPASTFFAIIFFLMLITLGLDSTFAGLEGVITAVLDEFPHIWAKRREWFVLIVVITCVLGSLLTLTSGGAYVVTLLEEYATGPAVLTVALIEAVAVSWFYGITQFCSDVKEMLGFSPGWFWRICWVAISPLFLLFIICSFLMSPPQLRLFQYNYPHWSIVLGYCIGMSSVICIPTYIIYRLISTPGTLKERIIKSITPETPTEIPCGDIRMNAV

Regarding `CN1CCC(c2ccc(Cl)cc2)[C@H](C(=O)O)C1` (stereo not given in full) [CAS_8268], the results for the inhibition constant (Ki) in assay [1], in assay [2] and in assay [3] were 0.09 µM, 5.9 µM and 0.276 µM, respectively.
Take `CN1CCC(c2ccc(Cl)cc2)[C@@H](C(=O)O)C1` (stereo partly drawn) [cis-CPCA, -]: the values for the inhibitory constant (Ki) in assay [1] and in assay [3] were 0.098 µM and 0.067 µM, respectively.

These data come from BindingDB's records for doi:10.1124/jpet.102.046318 (Georgetown University, 2003).
